# Data published in article PMC9229919, “4-Aminoquinoline-Based Adamantanes as Potential Anticholinesterase Agents in Symptomatic Treatment of Alzheimer’s Disease” (Pharmaceutics, 2022).
# Like-named read-outs stand apart in the source and are kept apart here.
# Columns and labels:
# recombinant human AChE = target: T1, recombinant human AChE (Homo sapiens, UniProt P22303); test: biochemical; format: biochemical; conditions: for IS: IS = Ki(BChE)/Ki(AChE), IS > 1 selective to AChE
# T1 construct: gift of Dr Florian Nachon (Armed Forces Biomedical Research Institute, Brétigny-sur-Orge, France)
# Procedure: (§1) Acetylthiocholine (ATCh) and 5,5′-dithiobis(2-nitrobenzoic acid) (DTNB) were purchased from Sigma-Aldrich, St. Louis, MO, USA. ATCh was dissolved in water and DTNB in 0.1 M sodium phosphate buffer (pH 7.4). The 4-aminoquinilines were dissolved in DMSO and all further dilutions were made in water.
# (§2) The sources of AChE and BChE were purified human BChE and recombinant human AChE that was kindly provided by Dr Florian Nachon (Département de Toxicologie, Armed Forces Biomedical Research Institute, Brétigny-sur-Orge, France). […] The enzymes were diluted in sodium phosphate buffer 0.1 M (pH 7.4) containing 0.1% BSA.
# (§3) Enzyme activities were measured spectrophotometrically using a slightly modified Ellman method, as described earlier. […] At least three inhibitor concentrations for each substrate concentration were used in at least three experiments. The apparent inhibition constant (Ki,app) was calculated using the Hunter–Downs Equation and linear regression analysis:(1) Ki,app=vi·i/v0−vi=Ki+Ki/KS·s where the y-intercept determines the enzyme-inhibitor dissociation constant (Ki), while the x-intercept determines the enzyme-substrate dissociation constant, KS.
# (§4) The Hunter–Downs Equation was used under the assumption that the substrate, due to relatively low concentrations used in experiments, would bind only to the catalytic site of the enzymes, while the inhibitors would bind to both CAS and/or PAs. This allowed the type of inhibition to be determined from Ki,app vs. substrate concentration ([S]) dependency on Hunter–Downs plot.
# (§5) The final content of DMSO in the measurements was up to 0.2%. […] The measurements were performed at 25 °C on a Tecan Infinite M200Pro plate reader (Tecan Austria GmbH, Salzburg, Austria).
# purified human BChE = target: T2, purified human BChE (Homo sapiens, UniProt P06276); test: biochemical; format: biochemical
# T2 construct: possibly also a gift of Dr Florian Nachon (the sentence is ambiguous)
# Procedure: as §1, §2, §3, §4, §5
# [1] = Ferric reducing antioxidant power (FRAP) assay; conditions: mean ± standard error of three experiments;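 further: expressed as µM Fe2+ equivalents from an FeSO4·7H2O standard curve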
# Procedure: . All the chemicals were purchased from Sigma-Aldrich (St. Louis, MO, USA), except for tripyridyltriazine (TPTZ) (Fluka, Buchs, Switzerland) and FeCl3 (Kemika, Zagreb, Croatia). The FRAP assay was assessed according to Benzie and Strain [53] with slight procedure adjustments for 96-well microplates. The method is based on the reduction of the ferric-tripyridyltriazine (Fe^3+-TPTZ) complex to ferrous tripyridyltriazine (Fe^2+-TPTZ) by the action of electron-donating compounds at a low pH. Briefly, the FRAP reagent was prepared by mixing acetate buffer (300 mM, pH 3.6), a solution of 10 mM TPTZ in 40 mM HCl, and 20 mM FeCl3 at 10:1:1 (v/v/v). Then, 240 μL of FRAP reagent and 10 μL of sample solution were added to a 96-well plate and incubated at 37 °C for 60 min. The absorbance was measured at 593 nm using a microplate reader (Infinite M200PRO, Tecan Austria GmbH, Salzburg, Austria) against a blank. The reducing capacity was determined for 10 and 100 µM compound concentrations. […]. All measurements were performed in three independent experiments. FRAP values, denominating the reduction of ferric-tripyridyltriazine (Fe^3+-TPTZ) to ferrous tripyridyltriazine (Fe^2+-TPTZ) by 4-aminoquinolines were calculated based on a standard curve obtained using […].
# [2] = Reverse-phase thin-layer chromatographic lipophilicity (RF, RM0); format: physicochemical; conditions: for RM0: intercept of RM = RM0 + bC; for b: slope of RM = RM0 + bC; for RF, Acetone/Water/Hydrochloric acid (conc.), mobile phase I / RF, Dioxane/Water/Hydrochloric acid (conc.), mobile phase I / RF, Methanol/Water/Hydrochloric acid (conc.), mobile phase I / RF, Acetone/Water/Hydrochloric acid (conc.), mobile phase II / RF, Dioxane/Water/Hydrochloric acid (conc.), mobile phase II / RF, Methanol/Water/Hydrochloric acid (conc.), mobile phase II / RF, Acetone/Water/Hydrochloric acid (conc.), mobile phase III / RF, Dioxane/Water/Hydrochloric acid (conc.), mobile phase III / RF, Methanol/Water/Hydrochloric acid (conc.), mobile phase III / RF, Dioxane/Water/Hydrochloric acid (conc.), mobile phase IV / RF, Acetone/Water/Hydrochloric acid (conc.), mobile phase IV / RF, Methanol/Water/Hydrochloric acid (conc.), mobile phase IV / RF, Acetone/Water/Hydrochloric acid (conc.), mobile phase IX / RF, Methanol/Water/Hydrochloric acid (conc.), mobile phase IX / RF, Dioxane/Water/Hydrochloric acid (conc.), mobile phase V / RF, Acetone/Water/Hydrochloric acid (conc.), mobile phase V / RF, Methanol/Water/Hydrochloric acid (conc.), mobile phase V / RF, Dioxane/Water/Hydrochloric acid (conc.), mobile phase VI / RF, Acetone/Water/Hydrochloric acid (conc.), mobile phase VI / RF, Methanol/Water/Hydrochloric acid (conc.), mobile phase VI / RF, Acetone/Water/Hydrochloric acid (conc.), mobile phase VII / RF, Methanol/Water/Hydrochloric acid (conc.), mobile phase VII / RF, Acetone/Water/Hydrochloric acid (conc.), mobile phase VIII / RF, Methanol/Water/Hydrochloric acid (conc.), mobile phase VIII: RP-18 silica; for RF, Acetone/Water/Hydrochloric acid (conc.), mobile phase I: I = 80%AC/15%H2O/5%HCl; for RF, Dioxane/Water/Hydrochloric acid (conc.), mobile phase I: I = 90%Dioxane/5%H2O/5%HCl; for RF, Methanol/Water/Hydrochloric acid (conc.), mobile phase I: I = 90%MeOH/5%H2O/5%HCl; for RF, Acetone/Water/Hydrochloric acid (conc.), mobile phase II: II = 75%AC/20%H2O/5%HCl; for RF, Dioxane/Water/Hydrochloric acid (conc.), mobile phase II: II = 80%Dioxane/15%H2O/5%HCl; for RF, Methanol/Water/Hydrochloric acid (conc.), mobile phase II: II = 85%MeOH/10%H2O/5%HCl; for RF, Acetone/Water/Hydrochloric acid (conc.), mobile phase III: III = 70%AC/25%H2O/5%HCl; for RF, Dioxane/Water/Hydrochloric acid (conc.), mobile phase III: III = 70%Dioxane/25%H2O/5%HCl; for RF, Methanol/Water/Hydrochloric acid (conc.), mobile phase III: III = 80%MeOH/15%H2O/5%HCl; for RF, Dioxane/Water/Hydrochloric acid (conc.), mobile phase IV: IV = 60%Dioxane/35%H2O/5%HCl; for RF, Acetone/Water/Hydrochloric acid (conc.), mobile phase IV: IV = 65%AC/30%H2O/5%HCl; for RF, Methanol/Water/Hydrochloric acid (conc.), mobile phase IV: IV = 75%MeOH/20%H2O/5%HCl; for RF, Acetone/Water/Hydrochloric acid (conc.), mobile phase IX: IX = 40%AC/55%H2O/5%HCl; for RF, Methanol/Water/Hydrochloric acid (conc.), mobile phase IX: IX = 50%MeOH/45%H2O/5%HCl; for RF, Dioxane/Water/Hydrochloric acid (conc.), mobile phase V: V = 50%Dioxane/45%H2O/5%HCl; for RF, Acetone/Water/Hydrochloric acid (conc.), mobile phase V: V = 60%AC/35%H2O/5%HCl; for RF, Methanol/Water/Hydrochloric acid (conc.), mobile phase V: V = 70%MeOH/25%H2O/5%HCl; for RF, Dioxane/Water/Hydrochloric acid (conc.), mobile phase VI: VI = 40%Dioxane/55%H2O/5%HCl; for RF, Acetone/Water/Hydrochloric acid (conc.), mobile phase VI: VI = 55%AC/40%H2O/5%HCl; for RF, Methanol/Water/Hydrochloric acid (conc.), mobile phase VI: VI = 65%MeOH/30%H2O/5%HCl; for RF, Acetone/Water/Hydrochloric acid (conc.), mobile phase VII: VII = 50%AC/45%H2O/5%HCl; for RF, Methanol/Water/Hydrochloric acid (conc.), mobile phase VII: VII = 60%MeOH/35%H2O/5%HCl; for RF, Acetone/Water/Hydrochloric acid (conc.), mobile phase VIII: VIII = 45%AC/50%H2O/5%HCl; for RF, Methanol/Water/Hydrochloric acid (conc.), mobile phase VIII: VIII = 55%MeOH/40%H2O/5%HCl
# Procedure: Chromatographic determination of lipophilicity
# Merck, Darmstadt, Germany). The mobile phase contained organic modifier (methanol, acetone or dioxane), water and hydrochloric acid.
# Methanol was varied in the range […]
# with an increment of 10%. […]
# before chromatogram development. The solvent developing distance was 4.5 cm. Detection of […]
# All experiments were performed at ambient temperature (22±2 °C). Retention parameters were calculated as previously described. […]
# [3] = ± standard error, 25 °C, ATCh substrate, read-out: Ki AChE
# [4] = ± standard error, 25 °C, ATCh substrate, read-out: Ki BChE
# [5] = Acetone/Water/Hydrochloric acid (conc.)
# [6] = Dioxane/Water/Hydrochloric acid (conc.)
# [7] = Methanol/Water/Hydrochloric acid (conc.)
# T1 sequence (P22303 32-614): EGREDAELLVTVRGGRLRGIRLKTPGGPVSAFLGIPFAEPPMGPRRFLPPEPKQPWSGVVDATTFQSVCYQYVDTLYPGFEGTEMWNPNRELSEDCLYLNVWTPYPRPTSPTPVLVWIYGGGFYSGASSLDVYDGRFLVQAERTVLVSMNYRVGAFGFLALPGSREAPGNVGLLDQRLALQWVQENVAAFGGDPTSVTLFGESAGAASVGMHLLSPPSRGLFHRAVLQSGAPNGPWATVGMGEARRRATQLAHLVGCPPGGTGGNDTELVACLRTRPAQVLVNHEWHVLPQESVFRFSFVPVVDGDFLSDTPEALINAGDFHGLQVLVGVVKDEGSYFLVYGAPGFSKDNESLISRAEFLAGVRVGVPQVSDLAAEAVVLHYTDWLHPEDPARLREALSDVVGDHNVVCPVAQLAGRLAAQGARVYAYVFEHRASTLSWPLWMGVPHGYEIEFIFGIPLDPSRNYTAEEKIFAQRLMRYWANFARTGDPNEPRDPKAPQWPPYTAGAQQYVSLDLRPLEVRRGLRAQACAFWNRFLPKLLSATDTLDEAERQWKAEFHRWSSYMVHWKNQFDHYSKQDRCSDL
# T2 sequence (P06276 29-602): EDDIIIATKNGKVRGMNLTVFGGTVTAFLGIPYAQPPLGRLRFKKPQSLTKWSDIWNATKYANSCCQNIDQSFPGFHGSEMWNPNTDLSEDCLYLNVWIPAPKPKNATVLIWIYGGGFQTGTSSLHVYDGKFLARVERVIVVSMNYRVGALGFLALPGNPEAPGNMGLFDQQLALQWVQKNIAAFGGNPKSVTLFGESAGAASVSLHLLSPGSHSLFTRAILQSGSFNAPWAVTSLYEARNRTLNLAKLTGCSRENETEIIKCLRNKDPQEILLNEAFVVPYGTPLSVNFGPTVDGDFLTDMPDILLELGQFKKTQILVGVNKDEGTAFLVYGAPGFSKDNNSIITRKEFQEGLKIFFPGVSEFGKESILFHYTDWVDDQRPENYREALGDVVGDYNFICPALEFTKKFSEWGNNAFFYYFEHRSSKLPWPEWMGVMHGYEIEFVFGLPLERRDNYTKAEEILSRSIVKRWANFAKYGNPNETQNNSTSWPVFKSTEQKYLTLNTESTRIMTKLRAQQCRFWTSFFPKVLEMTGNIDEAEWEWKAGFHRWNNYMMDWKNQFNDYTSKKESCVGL
SMILES,IS (recombinant human AChE),Ki (recombinant human AChE; [3]),Ki (purified human BChE; [4]),FRAP ([1]; 10 µM compound),FRAP ([1]; 100 µM compound),"RM0 [2, 5]","b [2, 5]","RM0 [2, 6]","b [2, 6]","RM0 [2, 7]","b [2, 7]","RF, Acetone/Water/Hydrochloric acid (conc.), mobile phase I [2]","RF, Dioxane/Water/Hydrochloric acid (conc.), mobile phase I [2]","RF, Methanol/Water/Hydrochloric acid (conc.), mobile phase I [2]","RF, Acetone/Water/Hydrochloric acid (conc.), mobile phase II [2]","RF, Dioxane/Water/Hydrochloric acid (conc.), mobile phase II [2]","RF, Methanol/Water/Hydrochloric acid (conc.), mobile phase II [2]","RF, Acetone/Water/Hydrochloric acid (conc.), mobile phase III [2]","RF, Dioxane/Water/Hydrochloric acid (conc.), mobile phase III [2]","RF, Methanol/Water/Hydrochloric acid (conc.), mobile phase III [2]",further results
Clc1ccc2c(NCCCCN(CCC34CC5CC(CC(C5)C3)C4)CCC34CC5CC(CC(C5)C3)C4)ccnc2c1 [Compound 10],0.4,2.4 ± 0.2 µM,1 ± 0.1 µM,13 ± 4 µM,90 ± 6 µM,3.647,4.824,1.984,2.852,5.456,5.91,0.59,0.75,0.44,0.52,0.65,0.31,0.33,0.59,0.1,"RF, Dioxane/Water/Hydrochloric acid (conc.), mobile phase IV [2]: 0.47; RF, Acetone/Water/Hydrochloric acid (conc.), mobile phase IV [2]: 0.28; RF, Methanol/Water/Hydrochloric acid (conc.), mobile phase IV [2]: 0.1; RF, Acetone/Water/Hydrochloric acid (conc.), mobile phase IX [2]: 0; RF, Methanol/Water/Hydrochloric acid (conc.), mobile phase IX [2]: 0; RF, Dioxane/Water/Hydrochloric acid (conc.), mobile phase V [2]: 0.14; RF, Acetone/Water/Hydrochloric acid (conc.), mobile phase V [2]: 0.13; RF, Methanol/Water/Hydrochloric acid (conc.), mobile phase V [2]: 0.05; RF, Dioxane/Water/Hydrochloric acid (conc.), mobile phase VI [2]: 0; RF, Acetone/Water/Hydrochloric acid (conc.), mobile phase VI [2]: 0.09; RF, Methanol/Water/Hydrochloric acid (conc.), mobile phase VI [2]: 0.01; RF, Acetone/Water/Hydrochloric acid (conc.), mobile phase VII [2]: 0; RF, Methanol/Water/Hydrochloric acid (conc.), mobile phase VII [2]: 0; RF, Acetone/Water/Hydrochloric acid (conc.), mobile phase VIII [2]: 0; RF, Methanol/Water/Hydrochloric acid (conc.), mobile phase VIII [2]: 0"
Clc1ccc2c(NCCN(CCC34CC5CC(CC(C5)C3)C4)CCC34CC5CC(CC(C5)C3)C4)ccnc2c1 [Compound 9],0.3,5.2 ± 0.2 µM,1.5 ± 0.2 µM,3.4 ± 0.0 µM,29 ± 6 µM,3.559,4.683,2.268,3.179,5.446,5.91,0.58,0.75,0.44,0.5,0.65,0.31,0.33,0.55,0.11,"Ki (recombinant human AChE; log (Ki/µM AChE), read-out: Y Measured 1 log(ki)Ache (converted)): 5.2 µM; Ki (purified human BChE; logarithm of Ki in µM, BChE, dependent variable of the QSAR model, read-out: Y Measured 2 log(ki)Bche, log (Ki/µM BChE) (converted)): 1.5 µM; RF, Dioxane/Water/Hydrochloric acid (conc.), mobile phase IV [2]: 0.42; RF, Acetone/Water/Hydrochloric acid (conc.), mobile phase IV [2]: 0.28; RF, Methanol/Water/Hydrochloric acid (conc.), mobile phase IV [2]: 0.1; RF, Acetone/Water/Hydrochloric acid (conc.), mobile phase IX [2]: 0; RF, Methanol/Water/Hydrochloric acid (conc.), mobile phase IX [2]: 0; RF, Dioxane/Water/Hydrochloric acid (conc.), mobile phase V [2]: 0.11; RF, Acetone/Water/Hydrochloric acid (conc.), mobile phase V [2]: 0.13; RF, Methanol/Water/Hydrochloric acid (conc.), mobile phase V [2]: 0.05; RF, Dioxane/Water/Hydrochloric acid (conc.), mobile phase VI [2]: 0; RF, Acetone/Water/Hydrochloric acid (conc.), mobile phase VI [2]: 0.09; RF, Methanol/Water/Hydrochloric acid (conc.), mobile phase VI [2]: 0.01; RF, Acetone/Water/Hydrochloric acid (conc.), mobile phase VII [2]: 0; RF, Methanol/Water/Hydrochloric acid (conc.), mobile phase VII [2]: 0; RF, Acetone/Water/Hydrochloric acid (conc.), mobile phase VIII [2]: 0; RF, Methanol/Water/Hydrochloric acid (conc.), mobile phase VIII [2]: 0"
